This experiment deals with T1, GST-tagged-Wee1 kinase (Homo sapiens, UniProt P30291).
T1 construct: purchased Carnabio 05-177
The experiment is described as follows: Wee1 time-resolved fluorescence equilibrium binding assay (displacement of Oregon Green-labeled ATP-competitive probe). The following applies: TR-FRET probe displacement; 2 nM GST-Wee1, 300 nM probe, 1 hour incubation; read-out: Wee-1 binding (Ki nM). The method, then: Wee1 kinase was assayed using a time-resolved fluorescence equilibrium binding assay monitoring displacement of a rapidly reversible Oregon Green-labeled ATP-competitive kinase probe (N-(2-(2-(2-(4-(4-(5-chloro-4-(2-(1-hydroxycyclobutyl)thiazol-5-yl)-1H-pyrrolo[2,3-b]pyridin-2-yl)phenyl)piperazin-1-yl)ethoxy)ethoxy)ethyl)-2′,7′-difluoro-3′,6′-dihydroxy-3-oxo-3H-spiro[isobenzofuran-1,9′-xanthene]-5-carboxamide) by competitive Wee1 inhibitors.
(Time-resolved FRET reads energy transfer from a long-lived donor to a nearby acceptor.)

Drawing on US8716297B2, “Chemical entities to be used for Wee1 inhibition for the treatment of cancer” (AbbVie Inc., priority 2011, dated 2014), this text covers Ki for 30 molecules.

Molecules are shown by their SMILES.

T1 sequence (P30291 whole entry): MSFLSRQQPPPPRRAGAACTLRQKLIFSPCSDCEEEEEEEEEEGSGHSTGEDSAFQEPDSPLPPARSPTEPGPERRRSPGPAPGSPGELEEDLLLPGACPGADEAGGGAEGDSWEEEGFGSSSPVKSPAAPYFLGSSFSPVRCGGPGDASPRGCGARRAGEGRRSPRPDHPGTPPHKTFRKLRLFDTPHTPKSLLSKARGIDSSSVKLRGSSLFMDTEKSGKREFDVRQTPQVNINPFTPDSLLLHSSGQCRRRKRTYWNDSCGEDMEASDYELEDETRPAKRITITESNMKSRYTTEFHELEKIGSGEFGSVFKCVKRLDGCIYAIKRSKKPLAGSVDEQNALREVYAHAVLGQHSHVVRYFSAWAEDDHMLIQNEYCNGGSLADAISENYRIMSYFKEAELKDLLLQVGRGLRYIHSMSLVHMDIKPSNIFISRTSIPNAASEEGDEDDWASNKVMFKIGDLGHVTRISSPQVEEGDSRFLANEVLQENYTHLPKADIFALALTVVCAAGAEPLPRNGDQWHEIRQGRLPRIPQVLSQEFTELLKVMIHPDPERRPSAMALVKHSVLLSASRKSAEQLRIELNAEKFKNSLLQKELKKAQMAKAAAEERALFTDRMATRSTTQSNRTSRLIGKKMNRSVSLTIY

In the case of `CCCN1c2cc(-c3ccsc3)ccc2-c2nc(Nc3ccc(N4CCN(C)CC4)cc3)ncc2S1(=O)=O` [Example 74, N-[4-(4-methylpiperazin-1-yl)phenyl]-6-propyl-8-(3-thienyl)-6H-pyrimido[5,4-c][2,1]benzothiazin-2-amine 5,5-dioxide], the Ki came out at 20 nM.

As for `C=CCN1c2ccccc2-c2nc(Nc3ccc(N4CCNCC4)cc3)ncc2S1(=O)=O` [Example 25, 6-allyl-N-[4-(piperazin-1-yl)phenyl]-6H-pyrimido[5,4-c][2,1]benzothiazin-2-amine 5,5-dioxide], the Ki turned out to be 1.5 nM. As to `CCCN1c2cc(-c3ccc(C(N)=O)cc3)ccc2-c2nc(Nc3ccc(N4CCN(C)CC4)cc3)ncc2S1(=O)=O` [Example 71, 4-(2-{[4-(4-methylpiperazin-1-yl)phenyl]amino}-5,5-dioxido-6-propyl-6H-pyrimido[5,4-c][2,1]benzothiazin-8-yl)benzamide], the Ki worked out at 4 nM. For the molecule `C=CCN1c2ccccc2-c2nc(N)ncc2S1(=O)=O` [Example 29, 6-allyl-6H-pyrimido[5,4-c][2,1]benzothiazin-2-amine 5,5-dioxide], the Ki is 413 nM.

Turning to `CCCN1c2cc(-c3ccc(C(=O)NC4CC4)cc3)ccc2-c2nc(Nc3ccc(N4CCN(C)CC4)cc3)ncc2S1(=O)=O` [Example 72, N-cyclopropyl-4-(2-{[4-(4-methylpiperazin-1-yl)phenyl]amino}-5,5-dioxido-6-propyl-6H-pyrimido[5,4-c][2,1]benzothiazin-8-yl)benzamide], the Ki came to 7 nM. In the case of `C=CCN1c2ccccc2-c2nc(Nc3ccc(N4CCN(C)CC4)cc3)ncc2S1(=O)=O` [Example 1, 6-allyl-N-[4-(4-methylpiperazin-1-yl)phenyl]-6H-pyrimido[5,4-c][2,1]benzothiazin-2-amine 5,5-dioxide] it was 1.8 nM; in that of `CCCN1c2cc(-n3ccnc3)ccc2-c2nc(Nc3ccc(N4CCN(C)CC4)cc3)ncc2S1(=O)=O` [Example 92, 8-(1H-imidazol-1-yl)-N-[4-(4-methylpiperazin-1-yl)phenyl]-6-propyl-6H-pyrimido[5,4-c][2,1]benzothiazin-2-amine 5,5-dioxide], 14 nM; in that of `C/C=C/N1c2ccccc2-c2nc(Nc3ccc(N4CCN(C)CC4)cc3)ncc2S1(=O)=O` [Example 2, N-[4-(4-methylpiperazin-1-yl)phenyl]-6-[(1E)-prop-1-en-1-yl]-6H-pyrimido[5,4-c][2,1]benzothiazin-2-amine 5,5-dioxide], 1.7 nM. In the case of `C=CCN1c2c(C(=O)NC)cccc2-c2nc(Nc3ccc(N4CCN(C)CC4)cc3)ncc2S1(=O)=O` [Example 61, 6-allyl-N-methyl-2-{[4-(4-methylpiperazin-1-yl)phenyl]amino}-6H-pyrimido[5,4-c][2,1]benzothiazine-7-carboxamide 5,5-dioxide], the inhibition constant Ki was 11 nM.

Consider `C=CCN1c2ccccc2-c2nc(Nc3ccc(OCCN(CC)CC)cc3)ncc2S1(=O)=O` [Example 3, 6-allyl-N-{4-[2-(diethylamino)ethoxy]phenyl}-6H-pyrimido[5,4-c][2,1]benzothiazin-2-amine 5,5-dioxide], for which the Ki was determined as 4.8 nM.

Regarding `C=CCN1c2c(C(=O)OC)cccc2-c2nc(Nc3ccc(N4CCN(C)CC4)cc3)ncc2S1(=O)=O` [Example 60, methyl 6-allyl-2-{[4-(4-methylpiperazin-1-yl)phenyl]amino}-6H-pyrimido[5,4-c][2,1]benzothiazine-7-carboxylate 5,5-dioxide], the Ki is 9 nM. `C=CCN1c2ccccc2-c2nc(Nc3ccc(N4CCCCC4)cc3)ncc2S1(=O)=O` [Example 11, 6-allyl-N-[4-(piperidin-1-yl)phenyl]-6H-pyrimido[5,4-c][2,1]benzothiazin-2-amine 5,5-dioxide]: the Ki worked out at 31 nM. Regarding `CCCN1c2cc(-c3cnc(N)nc3)ccc2-c2nc(Nc3ccc(N4CCN(C)CC4)cc3)ncc2S1(=O)=O` [Example 73, 8-(2-aminopyrimidin-5-yl)-N-[4-(4-methylpiperazin-1-yl)phenyl]-6-propyl-6H-pyrimido[5,4-c][2,1]benzothiazin-2-amine 5,5-dioxide], the Ki amounted to 3 nM. As to `C=CCN1c2ccccc2-c2nc(Nc3cccc(N4CCN(C)CC4)c3)ncc2S1(=O)=O` [Example 18, 6-allyl-N-[3-(4-methylpiperazin-1-yl)phenyl]-6H-pyrimido[5,4-c][2,1]benzothiazin-2-amine 5,5-dioxide], the Ki was 4 nM. In the case of `CCCN1c2ccc(-c3cccc(C(=O)NC)c3)cc2-c2nc(Nc3ccc(N4CCN(C)CC4)cc3)ncc2S1(=O)=O` [Example 100, N-methyl-3-(2-{[4-(4-methylpiperazin-1-yl)phenyl]amino}-5,5-dioxido-6-propyl-6H-pyrimido[5,4-c][2,1]benzothiazin-9-yl)benzamide] it was 4 nM. As for `CCCN1c2ccc(-c3cccnc3)cc2-c2nc(Nc3ccc(N4CCN(C)CC4)cc3)ncc2S1(=O)=O` [Example 98, N-[4-(4-methylpiperazin-1-yl)phenyl]-6-propyl-9-(pyridin-3-yl)-6H-pyrimido[5,4-c][2,1]benzothiazin-2-amine 5,5-dioxide], the Ki was found to be 2.4 nM. For the molecule `C=CCN1c2ncccc2-c2nc(Nc3ccc(C(=O)N4CCN(C)CC4)cc3)ncc2S1(=O)=O` [Example 43, {4-[(6-allyl-5,5-dioxido-6H-pyrido[2,3-c]pyrimido[4,5-e][1,2]thiazin-2-yl)amino]phenyl}(4-methylpiperazin-1-yl)methanone], the Ki came out at 56 nM. In the case of `CCCN1c2cc(C(=O)N[C@H]3CC[C@H](N)CC3)ccc2-c2nc(Nc3ccc(N4CCN(C)CC4)cc3)ncc2S1(=O)=O` [Example 86, N-(trans-4-aminocyclohexyl)-2-{[4-(4-methylpiperazin-1-yl)phenyl]amino}-6-propyl-6H-pyrimido[5,4-c][2,1]benzothiazine-8-carboxamide 5,5-dioxide] it was 4 nM; in that of `C=CCN1c2ncccc2-c2nc(Nc3ccc(N4CCN(C)CC4)cc3C)ncc2S1(=O)=O` [Example 44, 6-allyl-N-[2-methyl-4-(4-methylpiperazin-1-yl)phenyl]-6H-pyrido[2,3-c]pyrimido[4,5-e][1,2]thiazin-2-amine 5,5-dioxide], 487 nM.

`C=CCN1c2ncccc2-c2nc(Nc3ccc(N4CCNCC4)cn3)ncc2S1(=O)=O` [Example 103, N-[5-(piperazin-1-yl)pyridin-2-yl]-6-(prop-2-en-1-yl)-6H-pyrido[2,3-c]pyrimido[4,5-e][1,2]thiazin-2-amine 5,5-dioxide]: the Ki was 110 nM. `C=CCN1c2ccccc2-c2nc(Nc3ccc4c(c3)CNCC4)ncc2S1(=O)=O` [Example 26, 6-allyl-N-(1,2,3,4-tetrahydroisoquinolin-7-yl)-6H-pyrimdio[5,4-c][2,1]benzothiazin-2-amine 5,5-dioxide]: the Ki is 1 nM. In the case of `C=CCN1c2ccccc2-c2nc(Nc3ccc(N4CCN(C(C)=O)CC4)cc3)ncc2S1(=O)=O` [Example 10, 1-(4-{4-[(6-allyl-5,5-dioxido-6H-pyrimido[5,4-c][2,1]benzothiazin-2-yl)amino]phenyl}piperazin-1-yl)ethanone] it was 5 nM.

Take `C=CCN1c2ccccc2-c2nc(Nc3ccc(N4CCN(C)CC4)cc3OC)ncc2S1(=O)=O` [Example 15, 6-allyl-N-[2-methoxy-4-(4-methylpiperazin-1-yl)phenyl]-6H-pyrimido[5,4-c][2,1]benzothiazin-2-amine 5,5-dioxide]: the Ki came out at 166 nM.

Regarding `CCCN1c2cc(C(=O)NCCOC)ccc2-c2nc(Nc3ccc(N4CCN(C)CC4)cc3)ncc2S1(=O)=O` [Example 85, N-(2-methoxyethyl)-2-{[4-(4-methylpiperazin-1-yl)phenyl]amino}-6-propyl-6H-pyrimido[5,4-c][2,1]benzothiazine-8-carboxamide 5,5-dioxide], the inhibition constant (Ki) came to 5 nM.

Consider `C=CCN1c2ncccc2-c2nc(Nc3ccc(N4CCNCC4)cc3)ncc2S1(=O)=O` [Example 34, 6-allyl-N-[4-(piperazin-1-yl)phenyl]-6H-pyrido[2,3-c]pyrimido[4,5-e][1,2]thiazin-2-amine 5,5-dioxide], for which the Ki turned out to be 2 nM. Regarding `C=CCN1c2ccccc2-c2nc(Nc3ccc4c(c3)N(C)CCC4)ncc2S1(=O)=O` [Example 8, 6-allyl-N-(1-methyl-1,2,3,4-tetrahydroquinolin-7-yl)-6H-pyrimido[5,4-c][2,1]benzothiazin-2-amine 5,5-dioxide], the Ki was found to be 106 nM. On to `C=CCN1c2ncccc2-c2nc(Nc3ccc(N4CCNCC4)c(F)c3)ncc2S1(=O)=O` [Example 36, 6-allyl-N-[3-fluoro-4-(piperazin-1-yl)phenyl]-6H-pyrido[2,3-c]pyrimido[4,5-e][1,2]thiazin-2-amine 5,5-dioxide], for which the inhibitory constant (Ki) was 9 nM.

In the case of `CCCN1c2ccc(Br)cc2-c2nc(Nc3ccc(N4CCN(C)CC4)cc3)ncc2S1(=O)=O` [Example 96, 9-bromo-N-[4-(4-methylpiperazin-1-yl)phenyl]-6-propyl-6H-pyrimido[5,4-c][2,1]benzothiazin-2-amine 5,5-dioxide], the Ki was 2 nM. In the case of `C=CCN1c2ncccc2-c2nc(Nc3ccc(N4CCN5CCCC5C4)cc3)ncc2S1(=O)=O` (stereo not drawn) [Example 48, 6-allyl-N-[4-(hexahydropyrrolo[1,2-a]pyrazin-2(1H)-yl)phenyl]-6H-pyrido[2,3-c]pyrimido[4,5-e][1,2]thiazin-2-amine 5,5-dioxide] it was 2 nM; in that of `C=CCN1c2ccccc2-c2nc(Nc3ccc(N4CCNCC4)c(F)c3)ncc2S1(=O)=O` [Example 31, 6-allyl-N-[3-fluoro-4-(piperazin-1-yl)phenyl]-6H-pyrimido[5,4-c][2,1]benzothiazin-2-amine 5,5-dioxide], 1.7 nM.

By Ki is commonly meant a dissociation constant, usually derived from enzyme kinetics or from competition with a known ligand.
